Results from PMC6656724 (Communications Biology, 2019).
Where two headings read alike, the source gives them in different places.

What was measured:
[1] = target: T1, Pseudomonas fluorescens KMO (PfKMO) (Pseudomonas fluorescens, UniProt Q84HF5, C252S/C461S); assay: biochemical
T1 construct: made in house; host or cells: E. coli BL21 (DE3)
Excerpt: (§1) A combination of ligand- and structural-based virtual screening approaches (see supporting information for details) was used to identify an initial library of >1000 compounds that may be suitable as potential KMO inhibitors. These compounds were screened for inhibition of Pseudomonas fluorescens KMO (PfKMO) and Homo sapiens KMO (HsKMO) using high-throughput assays by monitoring the time-dependent oxidation of NADPH at 340 nm[23].
(§2) Small-molecule compounds were supplied by Biofocus (Charles River Laboratories International Inc., MA, USA), which were identified in silico as potential inhibitors (further details are described in the Supplementary Methods). Initial inhibition assays were performed against Pseudomonas fluorescens KMO (PfKMO) and Homo sapiens KMO (HsKMO) by monitoring the time-dependent absorbance change of NADPH at 340 nm. Purified KMO protein (200 nM) was incubated in 100 µL reaction buffer (20 mM potassium phosphate pH 8.0, 7 mM 2-mercaptoethanol) containing 100 μM NADPH, 100 μM L-Kyn and 20 μM potential inhibitors in 96-well plates. […] The inhibitors identified in the initial screens were validated and re-assayed individually in a 1 cm path-length quartz micro cuvette. […] Suppliers for target inhibitor compounds are listed in Supplementary Table 11.
(§3) Supplementary Figure 1. Examples of inhibition data used to generate IC50 values for selected KMO inhibitors. Fixed concentration of L -KYN (200 µM) and NADPH (100µM) were added into reaction buffer (HsKMO: 20mM potassium phosphate pH 8.0, 7 mM 2-mercaptoethanol; PfKMO: 20 mM HEPES, 10mM sodium acetate, pH 7.5, 2mM DTT). The reaction was initiated by the addition of KMO enzyme (HsKMO: 0.5µM; PfKMO: 0.1 µM). KMO activity was measured in the presence of a range of inhibitor concentrations. […]
(§4) 3.5 Steady-state enzymatic assays.
(§5) Initial screening assays and determination of IC50 values for each potential inhibitor compound were carried out using either 0.1 µM PfKMO or 0.5 µM HsKMO at fixed […]
(§6) (HsKMO: 20 mM potassium phosphate pH 8.0, 7 mM 2-mercaptoethanol; PfKMO:
(§7) 20 mM HEPES, 10 mM sodium acetate, pH 7.5, 2 mM DTT). KMO activity was measured in the presence of a range of inhibitor concentrations by monitoring the […]
consumption of NADPH at 340 nm upon addition of enzyme via a Cary 50 UV-Vis spectrophotometer (Agilent Technologies). Rates were determined from linear regression fits to the initial linear portion of the curves. All measurements were performed in triplicate. The IC50 values for inhibitors were obtained by plotting the percentage inhibition versus the inhibitor concentration and fitting to the Morrison equation16 (equation 1) using Origin 9.0 Software (OriginLab, Northampton, MA). […]

Homo sapiens KMO (HsKMO) = target: T2, Homo sapiens KMO (HsKMO) (Homo sapiens, UniProt O15229); assay: KMO inhibition assay, NADPH oxidation at 340 nm (HsKMO); format: biochemical
T2 construct: GST; made in house
T2 sequence (O15229 whole entry): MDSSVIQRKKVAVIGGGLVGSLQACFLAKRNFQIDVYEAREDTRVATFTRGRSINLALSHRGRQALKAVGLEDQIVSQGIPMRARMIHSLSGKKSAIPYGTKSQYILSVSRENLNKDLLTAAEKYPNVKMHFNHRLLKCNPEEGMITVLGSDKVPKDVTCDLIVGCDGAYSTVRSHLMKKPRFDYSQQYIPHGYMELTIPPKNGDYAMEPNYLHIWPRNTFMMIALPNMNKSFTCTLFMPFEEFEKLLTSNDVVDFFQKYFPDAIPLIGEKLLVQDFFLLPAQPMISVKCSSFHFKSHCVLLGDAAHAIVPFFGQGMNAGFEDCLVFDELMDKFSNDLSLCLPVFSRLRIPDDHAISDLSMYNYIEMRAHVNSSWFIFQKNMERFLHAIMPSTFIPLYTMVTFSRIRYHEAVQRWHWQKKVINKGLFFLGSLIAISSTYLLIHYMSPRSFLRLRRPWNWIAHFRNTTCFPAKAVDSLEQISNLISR
Excerpt: as §1, §2
Supplementary Figure 1. Examples of inhibition data used to generate IC50 values for selected KMO inhibitors.
as §3, with “NADPH” for “Supplementary Figure 1. Examples of inhibition data used to generate IC50 values for selected KMO inhibitors. Fixed concentration of L -KYN (200 µM) and NADPH”
as §4, §5, §6, §7
consumption of NADPH at 340 nm upon addition of enzyme via a Cary 50 UV-Vis spectrophotometer (Agilent Technologies). Rates were determined from linear regression fits to the initial linear portion of the curves. All measurements were performed in triplicate. The IC50 values for inhibitors were obtained by plotting the percentage inhibition versus the inhibitor concentration and fitting to the Morrison equation16 (equation 1) using Origin 9.0 Software (OriginLab, Northampton, MA).
E + I + K!"" − E + I + K!"" ! − 4[E][I] where v0 is the enzyme activity without inhibitor, vi is the enzyme activity with ligand

T1 sequence (Q84HF5 whole entry C252S/C461S): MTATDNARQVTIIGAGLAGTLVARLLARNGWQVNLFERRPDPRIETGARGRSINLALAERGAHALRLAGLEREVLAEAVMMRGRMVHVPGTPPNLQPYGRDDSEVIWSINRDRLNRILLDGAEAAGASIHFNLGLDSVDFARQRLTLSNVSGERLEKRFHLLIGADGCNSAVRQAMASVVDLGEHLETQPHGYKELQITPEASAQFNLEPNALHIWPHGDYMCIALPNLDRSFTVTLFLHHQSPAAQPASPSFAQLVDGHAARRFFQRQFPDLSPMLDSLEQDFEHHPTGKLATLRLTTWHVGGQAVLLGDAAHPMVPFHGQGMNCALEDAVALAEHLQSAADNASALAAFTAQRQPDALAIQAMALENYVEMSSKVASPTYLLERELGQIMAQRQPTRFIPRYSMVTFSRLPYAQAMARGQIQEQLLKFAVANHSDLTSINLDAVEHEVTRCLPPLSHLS

Structure (SMILES) | IC50 [1] | IC50 (Homo sapiens KMO (HsKMO)) | IC50 ([1]; read-out: IC50 PfKMO)
O=C(Nc1ccccc1C(=O)O)c1ccc(-c2ccc(Cl)cc2Cl)o1 [compound 10, 2-(5-(2,4-dichlorophenyl)furan-2-carboxamido)benzoic acid] | 3 ± 0.1 µM | 1.6 µM | –
O=C(O)c1ccc(-c2ccccc2C(F)(F)F)o1 [compound 11, 5-[2-(trifluoromethyl)phenyl]furan-2-carboxylic acid] | 72.1 ± 1.9 µM | 144 µM | –
O=C(O)c1ccc(-c2cc(C(F)(F)F)ccc2Cl)o1 [compound 12, 5-[2-chloro-5-(trifluoromethyl)phenyl]furan-2-carboxylic acid] | 54 ± 1.6 µM | 31.8 µM | –
CC(C)n1c(CCC(=O)O)ccc1-c1ccc(Cl)cc1 [compound 14, 3-[5-(4-chlorophenyl)-1-(methylethyl)pyrrol-2-yl]propanoic acid] | – | 38.8 µM | –
COc1ccc(-c2cn(CC(=O)O)c(=O)cn2)cc1 [compound 15, 2-(5-(4-methoxyphenyl)-2-oxopyrazin-1(2H)-yl)acetic acid] | – | 54.2 µM | 6.3 ± 0.6 µM
O=C(O)c1ccc(-c2ccc(Cl)cc2Cl)o1 [compound 16, 5-(2,4-dichlorophenyl) furan-2-carboxylic acid] | 70.2 ± 2.8 µM | 207 µM | –
O=C(O)c1ccc(-c2cccc(Cl)c2)o1 [compound 17, 5-(3-chlorophenyl) furan-2-carboxylic acid] | 15.9 ± 0.8 µM | 442 µM | –
O=C(O)c1ccc(-c2ccc(F)c(Cl)c2)o1 [compound 18, 5-(3-chloro-4-fluorophenyl) furan-2-carboxylic acid] | 2.4 ± 0.3 µM | 193 µM | –
O=C(O)c1ccc(-c2ccc(Br)c(Cl)c2)o1 [compound 19, 5-(4-bromo-3-chlorophenyl) furan-2-carboxylic acid] | 0.7 ± 0.01 µM | 54.2 µM | –
